Reference: PubChem BioAssay (NCI)
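Five concentrations, 48 hours, 96-well plates. TGI is the concentration that stops growth completely.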

How the values were obtained:
Experiment in all cases: NCI-60 cell line screen, 48 h
[1] = system: U251 CNS
[2] = system: A549 NSCLC
[3] = system: MDA-MB-231 breast
[4] = system: SW-620 colon
[5] = system: A498 renal
[6] = system: SR leukemia
[7] = system: RPMI-8226 leukemia
[8] = system: CCRF-CEM leukemia
[9] = system: NCI-H460 lung
[10] = system: NCI-H226 lung

| SMILES | TGI [1] [µM] | TGI [2] [µM] | TGI [3] [µM] | TGI [4] [µM] | TGI [5] [µM] | TGI [6] [µM] | TGI [7] [µM] | TGI [8] [µM] | TGI [9] [µM] | TGI [10] [µM] |
| --- | --- | --- | --- | --- | --- | --- | --- | --- | --- | --- |
| COc1ccccc1NC(=O)CC(=O)N1N=C(C)C(N=Nc2ccc(C(=O)O)cc2)C1=O (stereo unspecified) | > 100 | > 100 | > 100 | > 100 | > 100 | > 100 | > 100 | > 100 | – | – |
| Cc1nc2c(sc(=S)n2-c2ccccc2)c(=O)[nH]1 | > 100 | > 100 | – | > 100 | > 100 | > 100 | > 100 | > 100 | > 100 | > 100 |
| COc1ccc(C2N(NC(=O)c3ccncc3)C(=O)CS2(=O)=O)cc1F (stereo unspecified) | > 100 | > 100 | – | > 100 | > 100 | > 100 | > 100 | > 100 | > 100 | > 100 |
| COc1ccc(-c2cc(-c3ccc(Nc4ccnc5cc(Cl)ccc45)cc3)[nH]c(=O)c2C#N)c2ccccc12 | – | > 52.9 | 51.1 | > 100 | 49.7 | 2.6 | 7.28 | > 100 | > 100 | > 100 |
| COc1ccccc1Cc1nc(-c2ccccc2)nn(C2OC(COC(C)=O)C(OC(C)=O)C(OC(C)=O)C2OC(C)=O)c1=S (stereo unspecified) | > 31.6 | > 100 | – | > 100 | > 56.2 | – | 80.6 | > 100 | > 73.5 | > 95.7 |
| C(CCCCc1nnc(N2CCCCC2)o1)CCCc1nnc(N2CCCCC2)o1 | > 100 | > 100 | > 100 | > 100 | > 100 | – | – | > 100 | > 100 | > 100 |
| Oc1c([Si](c2ccccc2)(c2ccccc2)c2ccccc2)cc2ccccc2c1-c1c(O)c([Si](c2ccccc2)(c2ccccc2)c2ccccc2)cc2ccccc12 | > 100 | > 100 | > 100 | > 100 | > 100 | > 100 | > 100 | > 100 | > 100 | – |
| S=C1SCN(Cc2ccco2)CN1c1ccc(Br)cc1 | 57.9 | 54.3 | – | 62.3 | 66.1 | 31.4 | 35.3 | 67.4 | 28.5 | 69.1 |
| COc1cc2c(cc1OC)C(Cl)C(c1ccc(Cl)c(Cl)c1)=C2Cl (stereo unspecified) | 16.4 | – | – | 20 | 34 | – | 12.8 | 16.7 | 16 | 23.9 |
| NCCCN(CCCN)CCN(CCN(CCCN)CCCN)CCN(CCCN)CCCN | > 100 | > 100 | > 100 | > 100 | – | > 100 | > 100 | – | > 100 | > 100 |
| CC(=O)Nc1ccc(OC2=CCN(C)CC2)cc1 | > 100 | > 100 | > 100 | > 100 | – | > 100 | > 100 | > 100 | > 100 | > 100 |
| O=C(O)c1ccn(-c2cccc(-n3ccc(C(=O)O)n3)n2)n1 | > 100 | > 100 | > 100 | > 100 | – | > 100 | > 100 | > 100 | > 100 | > 100 |
| CC1(c2ccc[n+](Cc3ccccc3)c2)OCCO1 | > 100 | > 100 | – | > 100 | > 100 | > 100 | > 100 | > 100 | > 100 | > 100 |
| CCOC(=O)C(NC(=O)CC)(Nc1cc(C)on1)C(F)(F)F (stereo unspecified) | > 100 | > 100 | – | > 100 | – | > 100 | > 100 | > 100 | – | – |
| Cc1cn(Cc2cnnn2CC2OC(n3cc(C)c(=O)[nH]c3=O)CC2O)c(=O)[nH]c1=O (stereo unspecified) | > 100 | > 100 | > 100 | > 100 | > 100 | – | > 100 | > 100 | – | > 100 |
| COc1cc2cc[n+]3c(C)c4cc(OC)c(OC)cc4c([O-])c3c2cc1OC | > 100 | > 100 | – | > 100 | > 100 | > 100 | > 100 | > 100 | > 100 | > 100 |
| Cc1ccc2c(c1C)C(=O)/C(=C/c1ccccc1C(=O)O)C2 | > 100 | > 100 | – | > 100 | > 100 | > 100 | > 100 | > 100 | > 100 | > 100 |
| O=C(OCCN=c1c2ccccc2ccc2ccccc12)c1ccc([N+](=O)[O-])cc1 | > 100 | > 100 | > 100 | > 100 | – | > 100 | > 100 | > 100 | > 100 | > 100 |
| CN(C)c1nc2oc(-c3ccccc3)c(-c3ccccc3)c2c2nnnn12 | > 100 | > 100 | > 100 | > 100 | > 100 | > 100 | > 100 | > 100 | – | > 100 |
| NNC(=O)Cn1c2ccc(Br)cc2c2nc3ccccc3nc21 | > 100 | > 100 | > 100 | > 100 | > 100 | > 100 | > 100 | – | – | > 100 |
| CCN(CC)c1ccc2cc(C(=O)Nc3cccc4ccccc34)c(=N)oc2c1 | > 100 | > 100 | > 100 | > 100 | – | > 100 | > 100 | > 100 | > 100 | > 100 |
| CN1CCN(CCCBr)CC1 | > 100 | > 100 | > 100 | > 100 | > 100 | – | > 100 | > 100 | > 100 | > 100 |
| CCOC(=O)c1nc2ccc(C(F)(F)F)cc2nc1Oc1cc(OC)cc(OC)c1 | > 100 | > 100 | > 100 | > 100 | > 100 | – | > 100 | > 100 | > 100 | > 100 |
